Experimental data from article PMC6100582 (Molecules : A Journal of Synthetic Chemistry and Natural …, 2018).
Converted amounts (≈) assume the structure as drawn. Where two headings read alike, the source gives them in different places.

Experiments:
[1] = tested on: Punta Toro Virus; test: microbe, parasite or virus in culture; type: cell-based; details: Vero cells
[2] = tested on: Mycobacterium tuberculosis H37Ra; test: Antimycobacterial susceptibility assay (MIC determination); type: cell-based; details: 168 h, 7 days, 37 °C, alamarBlue
Procedure: At log phase growth, a culture sample (10 mL) was centrifuged at 15,000 rpm/20 min using a bench-top centrifuge (MPW-65R, MPW Med Instruments, Poland). Following removal of the supernatant, the pellet was washed in fresh Middlebrook 7H9GC broth and re-suspended in fresh, ODAC-supplemented MB (10 mL). The turbidity was adjusted to match McFarland standard No. 1 (3 × 10^8 CFU) with MB broth. A further 1:20 dilution of the culture was then performed in MB broth. The antimicrobial susceptibility of M. tuberculosis was investigated in a 96-well plate format. In these experiments, sterile deionised water (300 µl) was added to all outer-perimeter wells of the plates to minimize evaporation of the medium in the test wells during incubation. Each evaluated compound (100 µL) was incubated with M. tuberculosis (100 µl). Dilutions of each compound were prepared in duplicate. For all synthesized compounds, final concentrations ranged from 1000 μg/mL to 8 μg/mL. All compounds were dissolved in DMSO, and subsequent dilutions were made in supplemented MB. […] Following incubation, 10% of alamarBlue (Difco, Lawrence, KS, USA) was mixed into each well, and readings at 570 nm and 600 nm were taken, initially for background subtraction and subsequently after 24 h reincubation. […] For non-interfering compounds, a blue colour in the well was interpreted as the absence of growth, and a pink colour was scored as growth.

[3] = tested on: Yellow Fever Virus; test: microbe, parasite or virus in culture; type: cell-based; details: Vero
[4] = tested on: Enterococcus faecalis ATCC 29212; test: Antimicrobial susceptibility assay in vitro (MIC determination); type: cell-based
[5] = tested on: Acinetobacter baumannii MFBF 10913; test: Minimum biofilm eradication assay; type: cell-based
Procedure: (§1) MBECs of fumardiamides 4a–f and succindiamides 5a–f were determined as follows. Each well (96-well plate) was filled with 100 µl of bacterial (10^7 CFU/mL) or yeast (5 × 10^6 CFU/mL) suspension. When the inhibition of yeast biofilm formation was tested, the wells were pre-treated with fetal bovine serum (FBS) (250 µl per well). Negative controls contained broth only. Positive controls were performed using standard antimicrobial drugs gentamycin (Gen) and Amph, respectively. […] Following incubation period, each well was aspirated, washed three times and vigorously shaken to remove all non-adherent bacteria/yeast. The remaining attached cells were fixed with methanol (15 min) and the plates were left to dry overnight. Formed biofilm was stained with crystal violet (1%, 5 min). Excess stain was rinsed by placing the plate under running tap water and the plates were left to dry. Adherent cells were solubilized using ethanol. The absorbance was read at 570 nm. The MBEC value represents the lowest dilution of a compound at which bacteria fail to grow.

[6] = tested on: Escherichia coli ATCC 10536; test: Minimum biofilm eradication assay; type: cell-based
Procedure: as §1

[7] = tested on: Bacillus cereus ATCC 11778; test: Minimum biofilm eradication assay; type: cell-based
Procedure: as §1

[8] = tested on: Bacillus subtilis ATCC 6633; test: Minimum biofilm eradication assay; type: cell-based
Procedure: as §1

[9] = tested on: Salmonella enteritidis MFBF 11945; test: Minimum biofilm eradication assay; type: cell-based
Procedure: as §1

[10] = tested on: Pseudomonas aeruginosa ATCC 27853; test: Minimum biofilm eradication assay; type: cell-based
Procedure: as §1

[11] = tested on: Serratia marcescens ATCC 10905; test: Minimum biofilm eradication assay; type: cell-based
Procedure: as §1

[12] = tested on: Proteus mirabilis MFBF 10430; test: Minimum biofilm eradication assay; type: cell-based
Procedure: as §1

[13] = tested on: Enterococcus faecalis ATCC 29212; test: Minimum biofilm eradication assay; type: cell-based
Procedure: as §1

[14] = tested on: Staphylococcus aureus ATCC 6538; test: Minimum biofilm eradication assay; type: cell-based
Procedure: as §1

[15] = tested on: Z-138 (non-Hodgkin lymphoma); test: Antiproliferative screening (cytostatic activity); type: cell-based; details: Homo sapiens, Z-138; 72 h, IncuCyte imaging; read-out: IC50 Z-138
Procedure: (§2) All human tumor cell lines were acquired from the American Type Culture Collection (ATCC, Manassas, VA, USA), except for the DND-41 cell line which was purchased from the Deutsche Sammlung von Mikroorganismen und Zellkulturen (DSMZ Leibniz-Institut, Braunschweig, Germany) and the Hap1 cell line which was purchased from Horizon Discovery (Waterbeach, UK). […] All media were supplemented with 10% FBS (HyClone, GE Healthcare Life Sciences, USA). […] After overnight incubation, cells were treated with test compounds at four different concentrations ranging from 100 to 0.8 µM. […] Images were taken every 3 h, with one field image per well under 10× magnification. All compounds were tested with duplicate data points and averaged.

[16] = tested on: HCT-116 (colorectal carcinoma); test: Antiproliferative screening (cytostatic activity); type: cell-based; details: Homo sapiens, HCT-116; 72 h, IncuCyte imaging; read-out: IC50 HCT-116
Procedure: as §2

[17] = tested on: Capan-1 (pancreatic adenocarcinoma); test: Antiproliferative screening (cytostatic activity); type: cell-based; details: Homo sapiens, CAPAN-1; 72 h, IncuCyte imaging; read-out: IC50 Capan-1
Procedure: as §2

[18] = tested on: K-562 (chronic myeloid leukemia); test: Antiproliferative screening (cytostatic activity); type: cell-based; details: Homo sapiens, K562; 72 h, IncuCyte imaging; read-out: IC50 K-562
Procedure: as §2

[19] = tested on: NCI-H460 (lung carcinoma); test: Antiproliferative screening (cytostatic activity); type: cell-based; details: Homo sapiens, NCI-H460; 72 h, IncuCyte imaging; read-out: IC50 NCI-H460
Procedure: as §2

[20] = tested on: MM.1S (multiple myeloma); test: Antiproliferative screening (cytostatic activity); type: cell-based; details: Homo sapiens, MM1.S; 72 h, IncuCyte imaging; read-out: IC50 MM.1S
Procedure: as §2

[21] = MTS, read-out: EC50 Punta Toro Virus, MTS
[22] = read-out: EC50 Yellow Fever Virus, MTS
[23] = ATCC29212, Enterococcus faecalis ATCC 29212, broth dilution, 24 h, 37 °C, read-out: MIC
[24] = visual CPE score, read-out: EC50 Punta Toro Virus, Visual CPE Score
[25] = read-out: EC50 Yellow Fever Virus, Visual CPE Score
[26] = Enterococcus faecalis, ATCC29212, 24 h

Structure (SMILES) | EC50 [1, 21] [µM] | MIC [2] [µg/mL] | EC50 [3, 22] [µM] | melting point [°C] | MBEC [5] [µg/mL] | MBEC [6] [µg/mL] | MBEC [7] [µg/mL] | MBEC [8] [µg/mL] | MBEC [9] [µg/mL] | MBEC [10] [µg/mL] | MBEC [11] [µg/mL] | MBEC [12] [µg/mL] | MBEC [13] [µg/mL] | MBEC [14] [µg/mL] | IC50 [15] [µM] | IC50 [16] [µM] | IC50 [17] [µM] | IC50 [18] [µM] | IC50 [19] [µM] | IC50 [20] [µM] | other results
COc1cc(NC(C)CCCNC(=O)/C=C/C(=O)Nc2ccc(C(F)(F)F)cc2)c2ncccc2c1 (stereo not shown) [Compound 4f, (2E)-N′-{4-[(6-Methoxyquinolin-8-yl)amino]pentyl}-N-[4-(trifluoromethyl)phenyl]but-2-enediamide] | > 50 | 64 (≈ 128 µM) | > 50 | 189 to 191 | 100 | 50 | >100 | >100 | >100 | 25 | >100 | >100 | 50 | 25 | > 100 | > 100 | 79.4 | > 100 | > 100 | > 100 | MIC [4, 23]: 64 µg/mL (≈ 128 µM)
COc1cc(NC(C)CCCNC(=O)/C=C/C(=O)Nc2ccc(F)cc2)c2ncccc2c1 (stereo not shown) [Compound 4b, (2E)-N-(4-Fluorophenyl)-N′-{4-[(6-methoxyquinolin-8-yl)amino]pentyl}but-2-enediamide] | > 50 | 32 (≈ 71 µM) | > 50 | 226 to 227 | 25 | 50 | 25 | 25 | >100 | 12.5 | >100 | 25 | 25 | 12.5 | > 100 | > 100 | 50.5 | 70.5 | 29.1 | > 100 | MIC [4, 23]: 64 µg/mL (≈ 142 µM)
COc1cc(NC(C)CCCNC(=O)/C=C/C(=O)Nc2cccc(Cl)c2)c2ncccc2c1 (stereo not shown) [Compound 4c, (2E)-N-(3-Chlorophenyl)-N′-{4-[(6-methoxyquinolin-8-yl)amino]pentyl}but-2-enediamide] | 5.5 | 128 (≈ 274 µM) | > 50 | 187 to 188 | 100 | 50 | 25 | 50 | >100 | 50 | >100 | >100 | 25 | 12.5 | 46.5 | 73 | 69.9 | > 100 | 43.7 | > 100 | EC50 [1, 24]: > 50 µM; EC50 [3, 25]: > 50 µM; MIC [4, 23]: 256 µg/mL (≈ 548 µM)
COc1cc(NC(C)CCCNC(=O)/C=C/C(=O)Nc2cccc(C(F)(F)F)c2)c2ncccc2c1 (stereo not shown) [Compound 4e, (2E)-N′-{4-[(6-Methoxyquinolin-8-yl)amino]pentyl}-N-[3-(trifluoromethyl)phenyl]but-2-enediamide] | 5.4 | 128 (≈ 256 µM) | > 50 | 149 to 150 | 100 | 50 | >100 | >100 | >100 | 50 | >100 | >100 | 50 | 50 | 68.4 | > 100 | 56.5 | 71.2 | 34.2 | > 100 | EC50 [1, 24]: > 50 µM; EC50 [3, 25]: > 50 µM; MIC [4, 26]: 128 µg/mL (≈ 256 µM)
COc1cc(NC(C)CCCNC(=O)/C=C/C(=O)Nc2cccc(F)c2)c2ncccc2c1 (stereo not shown) [Compound 4a, (2E)-N-(3-Fluorophenyl)-N′-{4-[(6-methoxyquinolin-8-yl)amino]pentyl}but-2-enediamide] | > 50 | 128 (≈ 284 µM) | > 50 | 203 to 204 | 6.3 | 100 | >100 | 50 | >100 | 25 | 25 | >100 | 25 | 12.5 | 8.4 | 22.3 | 16.9 | 31.2 | 15.5 | 13 | MIC [4, 26]: 128 µg/mL (≈ 284 µM)
COc1cc(NC(C)CCCNC(=O)/C=C/C(=O)Nc2ccc(Cl)cc2)c2ncccc2c1 (stereo not shown) [Compound 4d, (2E)-N-(4-Chlorophenyl)-N′-{4-[(6-methoxyquinolin-8-yl)amino]pentyl}but-2-enediamide] | > 50 | 128 (≈ 274 µM) | > 50 | 223 to 226 | 100 | 50 | >100 | >100 | >100 | >100 | >100 | >100 | 50 | 25 | > 100 | > 100 | 91.8 | > 100 | > 100 | > 100 | MIC [4, 23]: 64 µg/mL (≈ 137 µM)
